The source of these data is patent US20160145247A1, “Aminomethyl-Biaryl Derivatives Complement Factor D inhibitors and uses thereof” (NOVARTIS AG, priority 2013, published 2016).

What is called IC50 is the concentration needed to halve the response being measured. A low value points to inhibition by little substance.

For the assay, the target named is T1, factor D (Homo sapiens, UniProt P00746).
T1 construct: made in house; host or cells: E. coli
T1 sequence (P00746 26-253): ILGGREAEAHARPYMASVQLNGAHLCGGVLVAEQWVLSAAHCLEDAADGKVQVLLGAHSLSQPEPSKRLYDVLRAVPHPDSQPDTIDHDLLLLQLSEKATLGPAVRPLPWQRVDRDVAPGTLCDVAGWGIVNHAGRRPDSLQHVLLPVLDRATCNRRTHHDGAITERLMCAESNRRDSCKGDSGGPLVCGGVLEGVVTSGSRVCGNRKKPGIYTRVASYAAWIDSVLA
The assay is described as follows: factor D inhibition assay of Biological Example 2. It is filed as biochemical.
With `C[C@@H](N)c1cccc(-c2cccc(C(=O)Nc3ccccc3CC(=O)O)c2)c1` [Example 90, (R)-2-(2-(3′-(1-aminoethyl)-[1,1′-biphenyl]-3-ylcarboxamido)phenyl)acetic acid], half-maximal inhibition (IC50) required 0.823 µM.
The compound `COc1c(C(=O)Nc2ccccc2CC(=O)O)cccc1-c1cccc(CN)c1` [Example 91, 2-(2-(3′-(Aminomethyl)-2-methoxy-[1,1′-biphenyl]-3-ylcarboxamido)phenyl)acetic acid] gave an IC50 of 22.3 µM.
To `NC1(c2cccc(-c3cccc(C(=O)Nc4ccccc4CC(=O)O)c3)c2)CC1` [Example 92, 2-(2-(3′-(1-Aminocyclopropyl)-[1,1′-biphenyl]-3-ylcarboxamido)phenyl)acetic acid] belongs 8.47 µM.
`COc1c(C(=O)Nc2ccccc2CC(=O)O)cccc1-c1cc(F)cc(CN)c1` [Example 93-B, 2-(2-(3′-(Aminomethyl)-5′-fluoro-2-methoxy-[1,1′-biphenyl]-3-ylcarboxamido)phenyl)acetic acid] yielded an IC50 of 6.72 µM.
Consider `N[C@H](CCO)c1cccc(-c2cc(COc3ccccc3CC(=O)O)cc(NCC3CC3)c2)c1` [Example 94-C, (R)-2-(2-((3′-(1-amino-3-hydroxypropyl)-5-((cyclopropylmethyl)amino)-[1,1′-biphenyl]-3-yl)methoxy)phenyl)acetic acid], for which the IC50 worked out at 0.027 µM.
As to `NCc1cc(F)cc(-c2cc(C(=O)O)cc(C(=O)Nc3ccccc3CC(=O)O)c2)c1` [Example 95-B, 3′-(Aminomethyl)-5-((2-(carboxymethyl)phenyl)carbamoyl)-5′-fluoro-[1,1′-biphenyl]-3-carboxylic acid], half-maximal inhibition (IC50) required 2.24 µM.
Regarding `CCC(=O)Nc1cc(C(=O)Nc2ccccc2CC(=O)O)cc(-c2cc(F)cc(CN)c2)c1` [Example 96-D, 2-(2-(3′-(Aminomethyl)-5′-fluoro-5-propionamido-[1,1′-biphenyl]-3-ylcarboxamido)phenyl)acetic acid], half-maximal inhibition (IC50) was put at 0.021 µM.
`CC(C)C(=O)Nc1cc(C(=O)Nc2ccccc2CC(=O)O)cc(-c2cc(F)cc(CN)c2)c1` [Example 97, 2-(2-(3′-(Aminomethyl)-5′-fluoro-5-isobutyramido-[1,1′-biphenyl]-3-ylcarboxamido)phenyl)acetic acid] yielded an IC50 of 0.045 µM.
With `CC(C)CC(=O)Nc1cc(C(=O)Nc2ccccc2CC(=O)O)cc(-c2cc(F)cc(CN)c2)c1` [Example 98, 2-(2-(3′-(Aminomethyl)-5′-fluoro-5-(3-methylbutanamido)-[1,1′-biphenyl]-3-ylcarboxamido)phenyl)acetic acid], the IC50 is 0.004 µM.
As to `NCc1cccc(-c2cccc(OCc3ccccc3CC(=O)O)n2)c1` [Example 99-C, 2-(2-(((6-(3-(Aminomethyl)phenyl)pyridin-2-yl)oxy)methyl)phenyl)acetic acid], the half-maximal inhibitory concentration (IC50) came out at 1.85 µM.
The compound `NCc1cccc(-c2cc(Cl)cc(COc3ccccc3CC(=O)O)c2)c1` [Example 102-B, 2-(2-((3′-(Aminomethyl)-5-chloro-[1,1′-biphenyl]-3-yl)methoxy)phenyl)acetic acid] had an IC50 of 0.009 µM.
As to `NCc1cccc(-c2cc(COc3ccccc3CC(=O)O)cc(C3CC3)c2)c1` [Example 103-B, 2-(2-((3′-(Aminomethyl)-5-cyclopropyl-[1,1′-biphenyl]-3-yl)methoxy)phenyl)acetic acid], 0.01 µM corresponded to half-maximal inhibition (IC50).
On to `CCc1cc(COc2ccccc2CC(=O)O)cc(-c2cccc(CN)c2)c1` [Example 104, 2-(2-((3′-(aminomethyl)-5-ethyl-[1,1′-biphenyl]-3-yl)methoxy)phenyl)acetic acid], for which inhibition was half-maximal at 0.006 µM (IC50).
Turning to `NCc1cccc(-c2cc(CCO)cc(COc3ccccc3CC(=O)O)c2)c1` [Example 105-C, 2-(2-((3′-(Aminomethyl)-5-(2-hydroxyethyl)-[1,1′-biphenyl]-3-yl)methoxy)phenyl)acetic acid], the IC50 was found to be 0.015 µM.
For the compound `NCc1cccc(-c2cc(CCC3CC3)cc(COc3ccccc3CC(=O)O)c2)c1` [Example 107-C, 2-(2-((3′-(Aminomethyl)-5-(2-cyclopropylethyl)-[1,1′-biphenyl]-3-yl)methoxy)phenyl)acetic acid], the IC50 amounted to 0.002 µM.
On to `N[C@H](CO)c1cccc(-c2cc(Cl)cc(COc3ccccc3CC(=O)O)c2)c1` [Example 108-B, (S)-2-(2-((3′-(1-Amino-2-hydroxyethyl)-5-chloro-[1,1′-biphenyl]-3-yl)methoxy)phenyl)acetic acid], for which half-maximal inhibition (IC50) was put at 0.007 µM.
Then `N[C@H](CO)c1cccc(-c2cc(COc3ccccc3CC(=O)O)cc(C3CC3)c2)c1` [Example 109-B, (S)-2-(2-((3′-(1-Amino-2-hydroxyethyl)-5-cyclopropyl-[1,1′-biphenyl]-3-yl)methoxy)phenyl)acetic acid], with 0.022 µM; and `CCc1cc(COc2ccccc2CC(=O)O)cc(-c2cccc([C@H](N)CO)c2)c1` [Example 110-C, (S)-2-(2-((3′-(1-Amino-2-hydroxyethyl)-5-ethyl-[1,1′-biphenyl]-3-yl)methoxy)phenyl)acetic acid], with 0.03 µM.
To `Cc1cc(COc2ccccc2CC(=O)O)cc(-c2cccc([C@H](N)CO)c2)c1` [Example 112-B, (S)-2-(2-((3′-(1-Amino-2-hydroxyethyl)-5-methyl-[1,1′-biphenyl]-3-yl)methoxy)phenyl)acetic acid] belongs 0.007 µM; to `N#Cc1cc(COc2ccccc2CC(=O)O)cc(-c2cccc(CN)c2)c1` [Example 113-B, 2-(2-((3′-(Aminomethyl)-5-cyano-[1,1′-biphenyl]-3-yl)methoxy)phenyl)acetic acid], 0.03 µM; to `N[C@H](CO)c1cccc(-c2cc(COc3ccccc3CC(=O)O)cc(C(F)(F)F)c2)c1` [Example 114-B, (S)-2-(2-((3′-(1-Amino-2-hydroxyethyl)-5-(trifluoromethyl)-[1,1′-biphenyl]-3-yl)methoxy)phenyl)acetic acid], 0.006 µM.
In turn, `N[C@H](CO)c1cccc(-c2cc(F)cc(COc3ccccc3CC(=O)O)c2)c1` [Example 115-A] yielded an IC50 of 0.003 µM.
The compound `CCOc1cc(COc2ccccc2CC(=O)O)cc(-c2cccc([C@H](N)CO)c2)c1` [Example 115-B] came in with an IC50 of 0.008 µM.
Consider `N[C@H](CO)c1cccc(-c2cc(COc3ccccc3CC(=O)O)cc(OCC(F)(F)F)c2)c1` [Example 115-C], for which the IC50 came to 0.005 µM.
The compound `C[C@@H](N)c1cccc(-c2cc(CO)cc(COc3ccccc3CC(=O)O)c2)c1` [Example 116-A] gave a half-maximal inhibitory concentration (IC50) of 0.021 µM.
To `NCc1cccc(-c2cc(COc3ccccc3CC(=O)O)cc(COc3ccccc3CC(=O)O)c2)c1` [Example 116-C] belongs 0.004 µM; to `CC(O)c1cc(COc2ccccc2CC(=O)O)cc(-c2cccc([C@@H](C)N)c2)c1` (stereo partly shown) [Example 116-F], 0.005 µM.
To `Cc1ccc(COc2ccccc2CC(=O)O)cc1-c1cccc([C@H](N)CO)c1` [Example 116-K] belongs 0.108 µM.
The compound `Cc1c(COc2ccccc2CC(=O)O)cccc1-c1cccc([C@H](N)CO)c1` [Example 116-L] had an IC50 of 10.3 µM.
As for `Cc1ccc(COc2ccccc2CC(=O)O)cc1-c1cccc([C@@H](C)N)c1` [Example 116-M], the IC50 is 1.23 µM.
`Cc1c(COc2ccccc2CC(=O)O)cccc1-c1cccc([C@@H](C)N)c1` [Example 116-N]: the midpoint of inhibition, the IC50, lay at 52.5 µM.
In turn, `CCC[C@@H](N)c1cccc(-c2cc(CO)cc(COc3ccccc3CC(=O)O)c2)c1` [Example 117-B, (R)-2-(2-((3′-(1-Aminobutyl)-5-(hydroxymethyl)-[1,1′-biphenyl]-3-yl)methoxy)phenyl)acetic acid] yielded an IC50 of 0.083 µM.
On to `CCC[C@@H](N)c1cccc(-c2cc(COC)cc(COc3ccccc3CC(=O)O)c2)c1` [Example 118, (R)-2-(2-((3′-(1-Aminobutyl)-5-(methoxymethyl)-[1,1′-biphenyl]-3-yl)methoxy)phenyl)acetic acid], for which half-maximal inhibition (IC50) required 0.067 µM.
`COCc1cc(COc2ccccc2CC(=O)O)cc(-c2cccc([C@@H](C)N)c2F)c1` [Example 120-A] returned an IC50 of 0.015 µM.
Turning to `C[C@@H](N)c1cccc(-c2cc(CO)cc(COc3ccccc3CC(=O)O)c2)c1F` [Example 120-B], the IC50 worked out at 0.055 µM.
To `COCc1cc(COc2ccccc2CC(=O)O)cc(-c2cccc([C@@H](C)N)c2)c1` [Example 120-C] belongs 0.003 µM.
As to `COC(C)c1cc(COc2ccccc2CC(=O)O)cc(-c2cccc([C@@H](C)N)c2F)c1` (stereo partly shown) [Example 120-D], inhibition was half-maximal at 0.093 µM (IC50).
To `COC(C)c1cc(COc2ccccc2CC(=O)O)cc(-c2cccc([C@H](N)CO)c2)c1` (stereo partly shown) [Example 120-E] belongs 0.017 µM; to `CC(O)c1cc(COc2ccccc2CC(=O)O)cc(-c2cccc([C@@H](C)N)c2F)c1` (stereo partly shown) [Example 120-F], 0.008 µM.
In the case of `C[C@@H](N)c1cccc(-c2cc(COc3ccccc3CC(=O)O)cc(C(C)(C)O)c2)c1F` [Example 120-G], the IC50 is 0.013 µM.
Then `C[C@@H](N)c1cccc(-c2cc(COc3ccccc3CC(=O)O)cc(C(C)(C)O)c2)c1` [Example 120-H], with 0.01 µM.
In the case of `COCc1cc(COc2ccccc2CC(=O)O)cc(-c2cccc([C@H](C)N)c2F)c1` [Example 120-I], the IC50 amounted to 0.025 µM.
As for `CC(O)c1cc(COc2ccccc2CC(=O)O)cc(-c2cccc([C@H](C)N)c2F)c1` (stereo partly shown) [Example 120-J], half-maximal inhibition (IC50) was put at 0.023 µM.
`COCc1cc(COc2ccccc2CC(=O)O)cc(-c2cccc([C@H](C)N)c2)c1` [Example 120-K] registered an IC50 of 0.19 µM.
In the case of `CC(O)c1cc(COc2ccccc2CC(=O)O)cc(-c2cccc([C@H](C)N)c2)c1` (stereo partly shown) [Example 120-L], 0.28 µM corresponded to half-maximal inhibition (IC50).
In the case of `C[C@@H](N)c1cccc(-c2cc(COCC(F)(F)F)cc(COc3ccccc3CC(=O)O)c2)c1F` [Example 120-M], the 50% inhibitory concentration (IC50) came out at 0.011 µM.
Then `C[C@@H](N)c1cccc(-c2cc(COCC(F)(F)F)cc(COc3ccccc3CC(=O)O)c2)c1` [Example 120-N], with 0.015 µM; and `CC(C)OCc1cc(COc2ccccc2CC(=O)O)cc(-c2cccc([C@@H](C)N)c2F)c1` [Example 120-O], with 0.024 µM; and `CC(C)OCc1cc(COc2ccccc2CC(=O)O)cc(-c2cccc([C@@H](C)N)c2)c1` [Example 120-P], with 0.007 µM.
